Columns and labels:
[1] = target: T1, Serine/threonine-protein kinase BRSK2 (Homo sapiens) (UniProt Q8IWQ3); experiment: Selectivity interaction (KinomeScan (DiscoverX)) EUB0000092b BRSK2; details: at 10 µM
T1 sequence (whole entry): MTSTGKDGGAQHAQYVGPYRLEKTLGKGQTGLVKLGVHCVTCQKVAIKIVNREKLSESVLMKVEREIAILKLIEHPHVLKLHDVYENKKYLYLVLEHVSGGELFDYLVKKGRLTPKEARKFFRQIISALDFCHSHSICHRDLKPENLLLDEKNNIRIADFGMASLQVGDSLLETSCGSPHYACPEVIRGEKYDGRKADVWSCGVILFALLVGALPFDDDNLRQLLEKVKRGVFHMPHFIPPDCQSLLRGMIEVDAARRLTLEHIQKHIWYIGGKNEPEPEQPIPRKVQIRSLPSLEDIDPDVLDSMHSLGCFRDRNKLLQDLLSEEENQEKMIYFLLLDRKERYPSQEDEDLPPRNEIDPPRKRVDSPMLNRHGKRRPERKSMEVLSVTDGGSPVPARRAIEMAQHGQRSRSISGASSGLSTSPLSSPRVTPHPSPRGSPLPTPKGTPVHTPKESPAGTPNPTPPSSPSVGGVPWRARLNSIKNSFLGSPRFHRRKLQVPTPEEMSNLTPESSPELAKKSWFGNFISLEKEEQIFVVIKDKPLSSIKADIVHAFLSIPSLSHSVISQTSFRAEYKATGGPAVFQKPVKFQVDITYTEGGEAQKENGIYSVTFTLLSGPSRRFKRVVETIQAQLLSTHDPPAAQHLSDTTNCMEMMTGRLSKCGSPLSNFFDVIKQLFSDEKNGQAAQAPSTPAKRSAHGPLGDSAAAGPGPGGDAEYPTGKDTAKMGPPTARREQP

MAO-B (MAOB) = MAO-B (MAOB) (Homo sapiens, UniProt P27338); experiment: Selectivity interaction (Panel of kinases, GPCRs, ion channels and transporters (enzymatic assay)) EUB0000266bCl MAOB
Sequence of MAO-B (MAOB) (P27338 whole entry): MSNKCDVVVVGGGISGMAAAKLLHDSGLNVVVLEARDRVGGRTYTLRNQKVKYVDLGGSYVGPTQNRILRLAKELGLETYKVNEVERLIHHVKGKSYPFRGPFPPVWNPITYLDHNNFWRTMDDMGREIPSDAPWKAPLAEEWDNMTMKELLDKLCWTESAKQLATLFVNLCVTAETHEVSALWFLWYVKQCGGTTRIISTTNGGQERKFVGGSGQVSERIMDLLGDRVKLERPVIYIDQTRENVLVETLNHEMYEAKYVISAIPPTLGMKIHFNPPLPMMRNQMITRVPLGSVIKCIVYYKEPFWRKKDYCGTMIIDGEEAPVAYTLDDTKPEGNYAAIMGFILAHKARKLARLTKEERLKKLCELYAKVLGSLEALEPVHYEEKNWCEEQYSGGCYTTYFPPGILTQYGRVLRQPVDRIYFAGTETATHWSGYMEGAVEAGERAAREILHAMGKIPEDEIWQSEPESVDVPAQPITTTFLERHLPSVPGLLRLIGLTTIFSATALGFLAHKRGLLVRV

[2] = target: Cyclin-dependent kinase 6 (Homo sapiens) (UniProt Q00534); experiment: Selectivity interaction (Kinase panel (KiNativ target engagement assay in Jurkat cells)) EUB0001635a CDK6; type: cell-based; details: Selectivity number of off-targets 0.0, Selectivity number of targets 233.0, Source Knowledge https://www.sciencedirect.com/science/article/pii/S2451945619300674?via%3Dihub, at 1 µM
Sequence of Cyclin-dependent kinase 6 (Homo sapiens) (Q00534 whole entry): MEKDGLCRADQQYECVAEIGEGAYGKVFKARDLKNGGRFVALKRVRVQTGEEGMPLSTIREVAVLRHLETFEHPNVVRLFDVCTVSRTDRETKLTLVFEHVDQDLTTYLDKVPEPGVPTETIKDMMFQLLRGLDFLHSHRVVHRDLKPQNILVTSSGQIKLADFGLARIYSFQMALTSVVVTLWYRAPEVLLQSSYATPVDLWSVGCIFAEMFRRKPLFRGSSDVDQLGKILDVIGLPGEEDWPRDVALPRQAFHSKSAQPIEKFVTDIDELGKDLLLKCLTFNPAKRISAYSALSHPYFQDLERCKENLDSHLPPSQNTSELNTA

[3] = target: Serine/threonine-protein kinase PLK3 (Homo sapiens, UniProt Q9H4B4); experiment: Selectivity interaction (KinomeScan (DiscoverX)) EUB0000666a PLK3; details: at 10 µM
[4] = target: Cyclin-dependent kinase 9 (Homo sapiens, UniProt P50750); experiment: Selectivity interaction (LanthaScreen Eu Kinase Binding Assay) EUB0001632a CDK9; details: at 10 µM
Sequence of Cyclin-dependent kinase 9 (P50750 whole entry): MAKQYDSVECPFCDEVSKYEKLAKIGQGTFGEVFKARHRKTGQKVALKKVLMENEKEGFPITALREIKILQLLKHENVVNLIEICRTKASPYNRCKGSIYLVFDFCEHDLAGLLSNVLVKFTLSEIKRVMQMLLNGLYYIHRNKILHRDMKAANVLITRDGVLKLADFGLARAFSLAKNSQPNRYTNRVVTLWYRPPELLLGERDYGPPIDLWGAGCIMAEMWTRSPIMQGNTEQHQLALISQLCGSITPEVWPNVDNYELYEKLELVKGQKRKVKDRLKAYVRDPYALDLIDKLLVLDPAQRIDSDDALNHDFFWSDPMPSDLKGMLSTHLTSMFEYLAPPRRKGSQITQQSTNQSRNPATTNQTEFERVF

[5] = target: Ribosomal protein S6 kinase beta-1 (Homo sapiens, UniProt P23443); experiment: Selectivity interaction (KinomeScan (DiscoverX)) EUB0001049a RPS6KB1; details: at 1 µM
Sequence of Ribosomal protein S6 kinase beta-1 (P23443 whole entry, looked up): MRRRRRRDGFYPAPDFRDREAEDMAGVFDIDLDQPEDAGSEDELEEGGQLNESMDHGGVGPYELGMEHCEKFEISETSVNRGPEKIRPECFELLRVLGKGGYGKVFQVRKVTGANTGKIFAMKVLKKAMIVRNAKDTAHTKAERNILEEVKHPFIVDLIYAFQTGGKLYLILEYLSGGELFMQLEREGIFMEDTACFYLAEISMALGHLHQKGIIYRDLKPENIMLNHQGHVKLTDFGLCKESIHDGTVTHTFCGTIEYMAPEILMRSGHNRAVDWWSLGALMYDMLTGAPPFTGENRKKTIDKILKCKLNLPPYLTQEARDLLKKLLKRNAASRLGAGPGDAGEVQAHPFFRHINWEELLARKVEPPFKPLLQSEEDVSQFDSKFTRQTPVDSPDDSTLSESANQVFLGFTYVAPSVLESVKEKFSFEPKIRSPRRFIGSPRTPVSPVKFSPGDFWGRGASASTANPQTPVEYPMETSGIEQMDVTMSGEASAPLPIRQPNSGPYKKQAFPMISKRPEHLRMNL

[6] = target: Serine/threonine-protein kinase PLK2 (Homo sapiens, UniProt Q9NYY3); experiment: Selectivity interaction (KinomeScan (DiscoverX)) EUB0001049a PLK2; details: at 1 µM
Sequence of Serine/threonine-protein kinase PLK2 (Q9NYY3 whole entry, looked up): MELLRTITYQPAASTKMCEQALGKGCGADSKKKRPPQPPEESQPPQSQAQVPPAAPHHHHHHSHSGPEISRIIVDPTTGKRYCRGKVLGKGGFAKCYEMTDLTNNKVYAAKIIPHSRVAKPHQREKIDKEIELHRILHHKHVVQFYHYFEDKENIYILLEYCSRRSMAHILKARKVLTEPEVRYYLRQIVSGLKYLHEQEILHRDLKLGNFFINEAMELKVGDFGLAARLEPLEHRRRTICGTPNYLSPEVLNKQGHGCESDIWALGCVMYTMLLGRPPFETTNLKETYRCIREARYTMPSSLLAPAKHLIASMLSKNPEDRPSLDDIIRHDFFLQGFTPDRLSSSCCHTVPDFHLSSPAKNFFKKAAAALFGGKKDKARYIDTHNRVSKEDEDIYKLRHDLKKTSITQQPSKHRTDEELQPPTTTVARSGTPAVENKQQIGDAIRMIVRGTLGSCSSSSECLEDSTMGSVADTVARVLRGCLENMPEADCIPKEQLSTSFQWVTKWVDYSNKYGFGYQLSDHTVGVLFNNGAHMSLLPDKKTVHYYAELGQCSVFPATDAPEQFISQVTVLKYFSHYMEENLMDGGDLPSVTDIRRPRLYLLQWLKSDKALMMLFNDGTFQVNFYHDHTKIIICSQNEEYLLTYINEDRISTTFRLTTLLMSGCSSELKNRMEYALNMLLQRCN

[7] = target: Sodium channel protein type 2 subunit alpha (Homo sapiens) (UniProt Q99250); experiment: Selectivity interaction (Panel of non-epigenetic targets (kinases, GPCRs, ion channels, and transporters, Eurofins) ) EUB0000271b SCN2A; details: at 1 µM
Sequence of Sodium channel protein type 2 subunit alpha (Homo sapiens) (Q99250 whole entry, looked up): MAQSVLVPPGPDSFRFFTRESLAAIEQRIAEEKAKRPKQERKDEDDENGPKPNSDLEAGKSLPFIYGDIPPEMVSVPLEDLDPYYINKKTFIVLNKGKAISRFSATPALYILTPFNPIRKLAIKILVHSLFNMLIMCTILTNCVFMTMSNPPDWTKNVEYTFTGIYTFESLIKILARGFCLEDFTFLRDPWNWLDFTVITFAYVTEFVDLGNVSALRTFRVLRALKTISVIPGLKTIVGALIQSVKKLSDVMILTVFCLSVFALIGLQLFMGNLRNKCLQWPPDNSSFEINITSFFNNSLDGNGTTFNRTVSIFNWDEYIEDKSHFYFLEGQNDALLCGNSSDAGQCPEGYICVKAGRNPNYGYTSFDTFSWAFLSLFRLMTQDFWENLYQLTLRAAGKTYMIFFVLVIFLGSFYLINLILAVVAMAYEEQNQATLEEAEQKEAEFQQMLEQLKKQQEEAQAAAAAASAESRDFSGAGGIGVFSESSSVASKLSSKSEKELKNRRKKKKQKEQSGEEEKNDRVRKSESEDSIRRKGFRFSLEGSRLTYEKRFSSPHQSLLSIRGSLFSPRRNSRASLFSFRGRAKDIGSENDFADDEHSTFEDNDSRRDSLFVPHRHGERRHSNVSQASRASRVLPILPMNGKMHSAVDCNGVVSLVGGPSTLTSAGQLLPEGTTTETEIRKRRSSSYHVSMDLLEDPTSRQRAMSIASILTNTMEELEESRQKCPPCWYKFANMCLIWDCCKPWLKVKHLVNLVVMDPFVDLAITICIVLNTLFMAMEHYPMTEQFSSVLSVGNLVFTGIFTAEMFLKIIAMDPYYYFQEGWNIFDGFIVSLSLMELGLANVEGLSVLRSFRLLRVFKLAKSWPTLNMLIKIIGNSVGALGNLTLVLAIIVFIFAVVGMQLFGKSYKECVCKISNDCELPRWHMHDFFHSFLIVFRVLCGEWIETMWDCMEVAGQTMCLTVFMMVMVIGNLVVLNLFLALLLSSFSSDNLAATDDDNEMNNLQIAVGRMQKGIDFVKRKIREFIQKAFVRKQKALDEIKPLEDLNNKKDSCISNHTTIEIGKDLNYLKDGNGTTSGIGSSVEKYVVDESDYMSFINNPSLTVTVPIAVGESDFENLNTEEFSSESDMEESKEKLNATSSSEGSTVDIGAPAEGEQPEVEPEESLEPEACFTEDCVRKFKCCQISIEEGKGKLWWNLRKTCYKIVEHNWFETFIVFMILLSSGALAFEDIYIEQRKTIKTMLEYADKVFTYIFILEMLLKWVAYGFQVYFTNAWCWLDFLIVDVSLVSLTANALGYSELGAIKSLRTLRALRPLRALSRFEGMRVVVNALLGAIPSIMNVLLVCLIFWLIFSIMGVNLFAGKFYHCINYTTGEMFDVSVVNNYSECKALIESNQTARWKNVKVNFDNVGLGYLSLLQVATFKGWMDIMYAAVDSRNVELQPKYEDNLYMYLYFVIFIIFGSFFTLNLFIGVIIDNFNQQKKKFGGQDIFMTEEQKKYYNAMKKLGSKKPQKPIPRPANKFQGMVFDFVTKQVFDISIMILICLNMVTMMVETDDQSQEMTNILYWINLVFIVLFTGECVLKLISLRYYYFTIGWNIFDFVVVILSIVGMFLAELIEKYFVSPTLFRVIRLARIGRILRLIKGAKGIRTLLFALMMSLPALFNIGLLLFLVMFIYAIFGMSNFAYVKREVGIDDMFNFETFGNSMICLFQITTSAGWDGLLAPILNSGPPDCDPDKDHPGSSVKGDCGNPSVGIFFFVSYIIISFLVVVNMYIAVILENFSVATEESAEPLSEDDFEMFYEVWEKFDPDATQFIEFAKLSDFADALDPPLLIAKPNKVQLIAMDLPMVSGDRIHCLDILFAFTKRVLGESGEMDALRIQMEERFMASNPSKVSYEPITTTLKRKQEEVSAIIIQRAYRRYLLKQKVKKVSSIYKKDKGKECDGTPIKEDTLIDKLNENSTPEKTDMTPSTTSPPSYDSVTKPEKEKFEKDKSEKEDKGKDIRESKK

[8] = target: T2, Tyrosine-protein kinase ITK/TSK (Homo sapiens) (UniProt Q08881); details: at 10 µM
T2 sequence (whole entry): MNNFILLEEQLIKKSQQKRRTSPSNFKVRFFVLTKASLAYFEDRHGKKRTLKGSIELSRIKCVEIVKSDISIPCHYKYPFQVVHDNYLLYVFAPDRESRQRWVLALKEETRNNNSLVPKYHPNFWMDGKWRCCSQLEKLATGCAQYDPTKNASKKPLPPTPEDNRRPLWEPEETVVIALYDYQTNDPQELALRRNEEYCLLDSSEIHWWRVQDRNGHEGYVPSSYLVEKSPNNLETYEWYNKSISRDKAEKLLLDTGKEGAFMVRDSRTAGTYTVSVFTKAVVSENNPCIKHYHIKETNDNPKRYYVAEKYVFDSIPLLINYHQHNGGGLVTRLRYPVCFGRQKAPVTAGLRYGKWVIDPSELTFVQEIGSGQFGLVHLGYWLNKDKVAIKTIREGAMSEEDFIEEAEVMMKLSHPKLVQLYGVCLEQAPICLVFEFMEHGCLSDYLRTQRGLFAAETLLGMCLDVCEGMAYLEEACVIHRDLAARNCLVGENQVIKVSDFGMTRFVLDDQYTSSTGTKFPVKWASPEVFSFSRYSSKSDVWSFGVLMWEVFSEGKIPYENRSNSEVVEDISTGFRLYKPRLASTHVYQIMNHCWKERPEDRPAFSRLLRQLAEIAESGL

[9] = target: Tyrosine-protein kinase Lck (Homo sapiens, UniProt P06239); experiment: Selectivity interaction (Enzymatic assay) EUB0001199aCl LCK
Sequence of Tyrosine-protein kinase Lck (P06239 whole entry): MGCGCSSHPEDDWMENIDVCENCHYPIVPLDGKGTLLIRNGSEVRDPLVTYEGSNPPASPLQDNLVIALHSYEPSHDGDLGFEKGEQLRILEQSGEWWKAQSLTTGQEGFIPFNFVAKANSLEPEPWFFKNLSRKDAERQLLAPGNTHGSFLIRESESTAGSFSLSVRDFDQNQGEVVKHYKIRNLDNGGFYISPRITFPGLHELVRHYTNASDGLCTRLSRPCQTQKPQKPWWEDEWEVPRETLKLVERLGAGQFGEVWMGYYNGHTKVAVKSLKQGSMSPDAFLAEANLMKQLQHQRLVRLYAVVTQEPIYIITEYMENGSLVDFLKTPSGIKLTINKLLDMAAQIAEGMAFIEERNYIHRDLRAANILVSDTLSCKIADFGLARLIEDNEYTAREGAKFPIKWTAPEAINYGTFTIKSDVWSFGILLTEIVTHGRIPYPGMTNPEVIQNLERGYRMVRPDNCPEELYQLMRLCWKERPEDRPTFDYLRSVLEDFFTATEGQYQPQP

[10] = target: T3, Serine/threonine-protein kinase DCLK2 (Homo sapiens) (UniProt Q8N568); experiment: Selectivity interaction (Kinase screening (Nanosyn)) EUB0000604a DCLK2
T3 sequence (whole entry): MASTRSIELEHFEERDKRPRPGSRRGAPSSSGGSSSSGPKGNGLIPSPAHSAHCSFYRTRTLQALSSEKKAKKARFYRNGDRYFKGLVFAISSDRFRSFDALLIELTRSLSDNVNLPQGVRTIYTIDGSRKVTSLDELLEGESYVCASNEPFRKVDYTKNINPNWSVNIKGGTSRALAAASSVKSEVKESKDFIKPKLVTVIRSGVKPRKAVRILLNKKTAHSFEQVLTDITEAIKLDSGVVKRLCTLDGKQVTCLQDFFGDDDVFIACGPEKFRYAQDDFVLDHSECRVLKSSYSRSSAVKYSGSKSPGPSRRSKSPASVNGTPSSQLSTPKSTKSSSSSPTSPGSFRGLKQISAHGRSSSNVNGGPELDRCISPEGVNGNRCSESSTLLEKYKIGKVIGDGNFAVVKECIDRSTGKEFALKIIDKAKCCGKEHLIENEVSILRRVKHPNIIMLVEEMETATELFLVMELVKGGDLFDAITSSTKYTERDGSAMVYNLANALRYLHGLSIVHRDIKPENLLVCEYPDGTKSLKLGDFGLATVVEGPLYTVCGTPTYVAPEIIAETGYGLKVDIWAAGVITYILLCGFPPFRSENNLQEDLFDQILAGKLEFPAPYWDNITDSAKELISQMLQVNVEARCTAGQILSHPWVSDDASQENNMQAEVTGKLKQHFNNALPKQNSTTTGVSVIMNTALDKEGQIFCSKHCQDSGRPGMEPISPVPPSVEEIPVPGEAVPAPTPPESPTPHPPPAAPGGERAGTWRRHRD

[11] = target: Proto-oncogene tyrosine-protein kinase Src (Homo sapiens, UniProt P12931); experiment: Selectivity interaction (ActivX KiNativ screen (ex vivo kinase selectivity in human PBMCs)) EUB0001619a SRC; type: cell-based; details: PBMC, at 1 µM

`CCC(=O)N1CCN(c2ccc(-n3c(=O)ccc4cnc5ccc(-c6cnc7ccccc7c6)cc5c43)cc2C(F)(F)F)CC1` showed a % of control [1] of 76%.

In the case of `CCn1c(-c2nc3cc(C(=O)N4CCCC(N)C4)ccc3n2C)cc2ccccc21` (configuration not stated), the XC50 (MAO-B (MAOB)) is reported as 20 µM.

`C=CC(=O)Nc1ccc(C(=O)Nc2[nH]nc3c2CN(C(=O)N[C@H](CN(C)C)c2ccccc2)C3(C)C)cc1` showed a % of engagement [2] of -8.6%.

Molecule `O=C(NOC[C@H](O)CO)c1ccc(F)c(F)c1Nc1ccc(I)cc1F` has a % of control [3] of 100%.

With `Cn1cc(-n2cnc3c(NCc4nc5cc(Cl)c(Cl)cc5[nH]4)nc(N4CCOCC4)nc32)cn1` the % of inhibition [4] was -166%.

For `COc1cc(Nc2nc(C)cc(-c3cnn4nc(OC)ccc34)n2)cc(C(F)(F)F)c1`, the % of control [5] was 87% and the % of control [6] was 77%.

`Cc1cc(C)cc([C@@H]2c3cc(C)ccc3NC(=O)CN2C(=O)c2ccc(Br)s2)c1` gave a % of inhibition [7] of -22%.

In the case of `COCC(=O)NC/C=C/c1ccc2ncnc(Nc3ccc(Oc4ccc(C)nc4)c(C)c3)c2c1` [CP-724714], the % of control [8] is reported as 92%.

With `CN1Cc2nccc(-c3cn(C)nc3-c3ccc(F)cc3)c2C1=O` the IC50 [9] was 10.2 µM.

With `Cc1cnc(Nc2ccc(F)cc2Cl)nc1-c1c[nH]c(C(=O)N[C@H](CO)c2cccc(Cl)c2)c1` the % of inhibition [10] was 1%.

`N#Cc1cccc(-c2c[nH]c3ncnc(N4CCOCC4)c23)c1` gave a % of inhibition [11] of 30%.

— ChEMBL document CHEMBL5465560, “Selectivity Literature for EUbOPEN Chemogenomic Library” (2024)
